In publication PMC7413254 (Nature Communications, 2020):

Columns and labels:
PfNT1 = target: T1, PfNT1 (Plasmodium falciparum, UniProt Q8IDM6); test: cell-based; format: cell-based; settings: footnote b: highest intracellular concentration tested was 30 mM (solubility); for Total [3H]CQ transport, trans-stimulation by injected solute / Trans-stimulation data: total [3H]CQ transport: PfNT1 oocytes; for Trans-stimulation data: total [3H]CQ transport: normalised to the oocyte type control (control = 100); for Trans-stimulation: total [3H]CQ transport, PfNT1 oocytes: mean ± SEM, SEM
T1 construct: expressed in transfected cells; host or cells: Xenopus laevis oocytes (stage V-VI), cRNA-injected
Summary of the method: (§1)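 Oocytes (ten per treatment, ≥4 independent frogs/days) were preloaded by injecting VF-6 in 25 nL ND96 at pH 5.0, 5.5, 6.0 or 7.0, or Na^+-free choline buffer, then uptake run 1.5 h, 27.5 °C, ND96 pH 5.5 by default. Internal concentrations assumed ~400 nL oocyte volume.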

PfCRT^3D7 = PfCRT^3D7 (Plasmodium falciparum, UniProt Q8IBZ9); test: cell-based; format: cell-based; settings: for Trans-stimulation data: PfCRT-mediated [3H]CQ transport: 2nd of 6 trans-stimulation columns, footnote b: due to solubility the highest intracellular concentration tested was 30 mM, normalised to the oocyte type control = 100; for Total [3H]CQ transport, trans-stimulation by injected solute / Trans-stimulation data: total [3H]CQ transport: PfCRT3D7 oocytes; for Total [3H]CQ transport, trans-stimulation by injected solute / Trans-stimulation data: total [3H]CQ transport / Trans-stimulation: total [3H]CQ transport, PfCRT3D7 oocytes: footnote b: highest intracellular concentration tested was 30 mM (solubility); for Trans-stimulation data: total [3H]CQ transport: normalised to the oocyte type control (control = 100); for Trans-stimulation: total [3H]CQ transport, PfCRT3D7 oocytes: mean ± SEM, SEM
Summary of the method: as §1

PfCRT^Ecu1110 = PfCRT^Ecu1110 (Plasmodium falciparum, UniProt Q9N623, A220S/I356L/K76T/N326D); test: cell-based; format: cell-based; settings: for Total [3H]CQ transport, trans-stimulation by injected solute / Trans-stimulation data: total [3H]CQ transport: PfCRTEcu1110 oocytes; for Total [3H]CQ transport, trans-stimulation by injected solute / Trans-stimulation data: total [3H]CQ transport / Trans-stimulation: total [3H]CQ transport, PfCRTEcu1110 oocytes: footnote b: highest intracellular concentration tested was 30 mM (solubility); for Trans-stimulation data: total [3H]CQ transport: normalised to the oocyte type control (control = 100); for Trans-stimulation data: PfCRT-mediated [3H]CQ transport: footnote b: due to solubility the highest intracellular concentration tested was 30 mM, normalised to the oocyte type control = 100; for Trans-stimulation: total [3H]CQ transport, PfCRTEcu1110 oocytes: mean ± SEM, SEM
Summary of the method: as §1

PfCRT^Dd2 = PfCRT^Dd2 (Plasmodium falciparum, UniProt Q9N623, A220S/I356T/K76T/M74I/N326S/N75E/Q271E/R371I); test: cell-based; format: cell-based; settings: for Total [3H]CQ transport, trans-stimulation by injected solute / Trans-stimulation data: total [3H]CQ transport: PfCRTDd2 oocytes; for Total [3H]CQ transport, trans-stimulation by injected solute / Trans-stimulation data: total [3H]CQ transport / Trans-stimulation: total [3H]CQ transport, PfCRTDd2 oocytes: footnote b: highest intracellular concentration tested was 30 mM (solubility); for Trans-stimulation data: total [3H]CQ transport: normalised to the oocyte type control (control = 100); for PfCRT-mediated [3H]CQ transport, trans-stimulation by injected solute, PfCRTDd2 / Trans-stimulation data: PfCRT-mediated [3H]CQ transport: footnote b: due to solubility the highest intracellular concentration tested was 30 mM; for PfCRT-mediated [3H]CQ transport, trans-stimulation by injected solute, PfCRTDd2: background subtracted; for Trans-stimulation data: PfCRT-mediated [3H]CQ transport: normalised to the oocyte type control = 100; for Trans-stimulation: total [3H]CQ transport, PfCRTDd2 oocytes: mean ± SEM, SEM
Summary of the method: as §1

non-expressing oocytes = format: cell-based, Xenopus laevis; settings: footnote b: highest intracellular concentration tested was 30 mM (solubility); for Total [3H]CQ transport, trans-stimulation by injected solute / Trans-stimulation data: total [3H]CQ transport: non-expressing oocytes; for Trans-stimulation data: total [3H]CQ transport: normalised to the oocyte type control (control = 100); for Trans-stimulation: total [3H]CQ transport, non-expressing oocytes: mean ± SEM, SEM
Protocol: Unless specified otherwise, the transport assays were conducted over 1.5 h at 27.5 °C and the reaction buffer was ND96 (96 mM NaCl, 2 mM KCl, 1 mM MgCl2, 1.8 mM CaCl2, 10 mM MES and 10 mM Tris-base) at pH 5.5.
The intracellular concentrations were calculated using previous estimates of the volume of stage V–VI oocytes (~400 nL[60]). […] The oocytes were injected with VF-6 suspended in 25 nL ND96 buffer adjusted to pH 5.0, 5.5, 6.0 or 7.0, which corresponded to the injection of 2.5–250 fmol of H^+. The Na^+-dependence of the trans-stimulatory effect of VF-6 was assessed by injecting the oocytes with VF-6 suspended in ND96 buffer (pH 5.5) or a Na^+-free version of this buffer (the Na^+ was replaced with choline).
At least four independent experiments were performed (on different days and using oocytes from different frogs), and within each experiment measurements were made from ten oocytes per treatment.

Sequence of PfCRT^Ecu1110 (Q9N623 whole entry A220S/I356L/K76T/N326D): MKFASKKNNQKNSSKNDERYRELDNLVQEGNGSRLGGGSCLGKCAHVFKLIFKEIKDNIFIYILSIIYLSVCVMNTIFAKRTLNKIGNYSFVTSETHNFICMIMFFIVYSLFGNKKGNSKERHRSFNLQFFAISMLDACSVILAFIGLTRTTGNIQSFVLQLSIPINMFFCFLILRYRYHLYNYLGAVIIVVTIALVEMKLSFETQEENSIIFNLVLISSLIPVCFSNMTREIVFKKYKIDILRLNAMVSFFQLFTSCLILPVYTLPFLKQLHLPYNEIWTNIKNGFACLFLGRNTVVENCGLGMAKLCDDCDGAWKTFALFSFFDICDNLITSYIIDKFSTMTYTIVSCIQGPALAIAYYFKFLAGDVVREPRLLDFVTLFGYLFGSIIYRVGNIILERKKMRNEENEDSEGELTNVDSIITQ
Sequence of PfCRT^3D7 (Q8IBZ9 59-398): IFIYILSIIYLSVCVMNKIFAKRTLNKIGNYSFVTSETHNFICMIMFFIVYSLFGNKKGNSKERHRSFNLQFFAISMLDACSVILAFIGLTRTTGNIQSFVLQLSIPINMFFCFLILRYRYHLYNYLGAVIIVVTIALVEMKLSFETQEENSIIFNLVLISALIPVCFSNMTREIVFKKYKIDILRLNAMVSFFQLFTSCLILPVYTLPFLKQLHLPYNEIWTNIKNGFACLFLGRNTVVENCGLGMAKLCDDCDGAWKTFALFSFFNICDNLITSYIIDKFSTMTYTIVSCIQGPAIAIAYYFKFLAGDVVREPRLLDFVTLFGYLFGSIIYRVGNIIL
T1 sequence (Q8IDM6 whole entry): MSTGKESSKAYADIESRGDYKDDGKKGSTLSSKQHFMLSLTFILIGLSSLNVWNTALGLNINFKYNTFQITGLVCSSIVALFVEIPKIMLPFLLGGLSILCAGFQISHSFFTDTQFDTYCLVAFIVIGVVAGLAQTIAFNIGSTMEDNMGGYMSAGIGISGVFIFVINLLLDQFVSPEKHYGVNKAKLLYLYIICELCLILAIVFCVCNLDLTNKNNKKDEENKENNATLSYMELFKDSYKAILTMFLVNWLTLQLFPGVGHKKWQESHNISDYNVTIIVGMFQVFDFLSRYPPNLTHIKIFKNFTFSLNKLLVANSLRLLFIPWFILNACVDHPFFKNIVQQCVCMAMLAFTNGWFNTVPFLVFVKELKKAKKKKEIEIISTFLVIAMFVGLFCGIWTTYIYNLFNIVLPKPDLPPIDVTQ
Sequence of PfCRT^Dd2 (Q9N623 whole entry A220S/I356T/K76T/M74I/N326S/N75E/Q271E/R371I): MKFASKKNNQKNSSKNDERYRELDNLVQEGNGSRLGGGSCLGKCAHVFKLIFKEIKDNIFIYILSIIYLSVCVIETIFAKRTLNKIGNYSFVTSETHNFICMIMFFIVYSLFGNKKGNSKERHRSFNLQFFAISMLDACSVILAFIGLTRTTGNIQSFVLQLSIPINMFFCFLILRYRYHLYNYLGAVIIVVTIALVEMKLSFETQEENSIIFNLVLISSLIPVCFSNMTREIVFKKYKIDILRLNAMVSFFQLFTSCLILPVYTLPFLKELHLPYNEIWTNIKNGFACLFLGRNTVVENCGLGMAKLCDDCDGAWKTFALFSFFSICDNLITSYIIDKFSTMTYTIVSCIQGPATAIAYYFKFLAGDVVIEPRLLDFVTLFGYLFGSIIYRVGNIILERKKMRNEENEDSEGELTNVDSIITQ

Sequence | Total [3H]CQ transport, trans-stimulation by injected solute (PfNT1) | Trans-stimulation data: total [3H]CQ transport (PfNT1) | Trans-stimulation data: PfCRT-mediated [3H]CQ transport (PfCRT^3D7) | Total [3H]CQ transport, trans-stimulation by injected solute (PfCRT^3D7) | Trans-stimulation data: total [3H]CQ transport (PfCRT^3D7) | Total [3H]CQ transport, trans-stimulation by injected solute (PfCRT^Ecu1110) | Trans-stimulation data: total [3H]CQ transport (PfCRT^Ecu1110) | Trans-stimulation data: PfCRT-mediated [3H]CQ transport (PfCRT^Ecu1110) | Total [3H]CQ transport, trans-stimulation by injected solute (PfCRT^Dd2) | Trans-stimulation data: total [3H]CQ transport (PfCRT^Dd2) | PfCRT-mediated [3H]CQ transport, trans-stimulation by injected solute, PfCRTDd2 (PfCRT^Dd2) | Trans-stimulation data: PfCRT-mediated [3H]CQ transport (PfCRT^Dd2) | Total [3H]CQ transport, trans-stimulation by injected solute (non-expressing oocytes) | Trans-stimulation data: total [3H]CQ transport (non-expressing oocytes) | Trans-stimulation: total [3H]CQ transport, PfNT1 oocytes (PfNT1) | Trans-stimulation: total [3H]CQ transport, PfCRT3D7 oocytes (PfCRT^3D7) | Trans-stimulation: total [3H]CQ transport, PfCRTEcu1110 oocytes (PfCRT^Ecu1110) | Trans-stimulation: total [3H]CQ transport, PfCRTDd2 oocytes (PfCRT^Dd2) | Trans-stimulation: total [3H]CQ transport, non-expressing oocytes (non-expressing oocytes)
DDEGDDDPVPLPNVNA [DA-16, additional peptide, 16 residues] | 3.3 ± 0.07b % of the PfCRTDd2 control | 99 ± 2.4b | 97 ± 2.2b | 3.1 ± 0.02b % of the PfCRTDd2 control | 100 ± 4.5b | 33 ± 1.8b % of the PfCRTDd2 control | 99 ± 3.7b | 98 ± 2.9b | 99 ± 2.7b % of the PfCRTDd2 control | 99 ± 2.7b | 100 ± 1.9b % of PfCRTDd2 control | 100 ± 1.9b | 2.6 ± 0.08b % of the PfCRTDd2 control | 98 ± 3.5b |  |  |  |  | 
FESFGDLSTPDAVMGNPKVK [FK-20, additional peptide, 20 residues] | 4.2 ± 0.03b % of the PfCRTDd2 control | 100 ± 4.2b | 98 ± 1.7b | 3.1 ± 0.05b % of the PfCRTDd2 control | 101 ± 2.7b | 32 ± 1.7b % of the PfCRTDd2 control | 99 ± 2.9b | 97 ± 2.0b | 101 ± 4.7b % of the PfCRTDd2 control | 101 ± 4.7b | 98 ± 4.3b % of PfCRTDd2 control | 98 ± 4.3b | 2.7 ± 0.06b % of the PfCRTDd2 control | 100 ± 4.8b |  |  |  |  | 
GTFATLSELHCDK [GK-13] |  | 99 ± 2.7b | 98 ± 4.1b |  | 100 ± 3.6b |  | 99 ± 2.2b | 97 ± 1.9b |  | 97 ± 2.7b | 95 ± 1.3b % of PfCRTDd2 control | 95 ± 1.3b |  | 100 ± 3.8b | 2.6 ± 0.04b % of PfCRTDd2 control | 3.1 ± 0.04b % of PfCRTDd2 control | 32 ± 1.5b % of PfCRTDd2 control | 97 ± 2.7b % of PfCRTDd2 control | 2.6 ± 0.05b % of PfCRTDd2 control
LTPEEKSAVTAL [LL-12] |  | 99 ± 2.5b | 97 ± 3.4b |  | 99 ± 2.7b |  | 100 ± 2.2b | 98 ± 1.7b |  | 100 ± 2.8b | 98 ± 1.1b % of PfCRTDd2 control | 98 ± 1.1b |  | 99 ± 2.4b | 2.2 ± 0.06b % of PfCRTDd2 control | 3.1 ± 0.05b % of PfCRTDd2 control | 33 ± 1.0b % of PfCRTDd2 control | 100 ± 2.8b % of PfCRTDd2 control | 3.2 ± 0.08b % of PfCRTDd2 control
LTPEEKSAVTALWGKVNVDEVGGEA [LA-25, additional peptide, 25 residues] | 2.7 ± 0.07b % of the PfCRTDd2 control | 101 ± 4.1b | 97 ± 3.1b | 3.1 ± 0.02b % of the PfCRTDd2 control | 99 ± 2.6b | 33 ± 1.8b % of the PfCRTDd2 control | 101 ± 4.3b | 98 ± 4.2b | 100 ± 3.3b % of the PfCRTDd2 control | 100 ± 3.3b | 97 ± 3.3b % of PfCRTDd2 control | 97 ± 3.3b | 2.5 ± 0.04b % of the PfCRTDd2 control | 101 ± 3.3b |  |  |  |  | 
NAVAHVDDMPNALSALSDLH [NH-20, additional peptide, 20 residues] | 3.2 ± 0.07b % of the PfCRTDd2 control | 100 ± 3.6b | 95 ± 3.2b | 3.0 ± 0.05b % of the PfCRTDd2 control | 99 ± 3.5b | 32 ± 1.7b % of the PfCRTDd2 control | 100 ± 3.5b | 97 ± 3.2b | 99 ± 2.8b % of the PfCRTDd2 control | 99 ± 2.8b | 97 ± 3.6b % of PfCRTDd2 control | 97 ± 3.6b | 3.3 ± 0.07b % of the PfCRTDd2 control | 101 ± 4.8b |  |  |  |  | 
SFGDLSTPDAVMG [SG-13] | 2.9 ± 0.09b % of the PfCRTDd2 control | 98 ± 2.4b | 97 ± 1.9b | 3.1 ± 0.05b % of the PfCRTDd2 control | 99 ± 2.5b | 33 ± 1.4b % of the PfCRTDd2 control | 101 ± 2.4b | 99 ± 1.8b | 100 ± 2.9b % of the PfCRTDd2 control | 100 ± 2.9b | 98 ± 3.0b % of PfCRTDd2 control | 98 ± 3.0b | 3.0 ± 0.04b % of the PfCRTDd2 control | 100 ± 3.6b |  |  |  |  | 
VEPSDTIENVK [VK-11] |  | 98 ± 3.3b | 158 ± 1.9b |  | 163 ± 3.2b |  | 131 ± 2.1b | 127 ± 1.9b |  | 98 ± 3.8b | 96 ± 2.1b % of PfCRTDd2 control | 96 ± 2.1b |  | 98 ± 2.5b | 2.7 ± 0.03b % of PfCRTDd2 control | 15 ± 0.3b % of PfCRTDd2 control | 42 ± 2.1b % of PfCRTDd2 control | 98 ± 3.8b % of PfCRTDd2 control | 3.1 ± 0.08b % of PfCRTDd2 control
